According to patent publication US20090018150A1, “5-Ht2b Receptor Antagonists” (ASTERAND UK LIMITED, priority 2003, published 2009):
Counter-ions that a name gives are not always drawn.

How the values were obtained:
[1] = molecular target: T1, cloned human 5-HT2C receptor (Homo sapiens, UniProt P28335); assay: Human 5-HT2C receptor binding assay; conditions: [3H]mesulergine (1 nM) displacement, CHO-K1 cell membranes; read-out: 5-HT2C pKi (converted)
T1 construct: purchased Euroscreen; host or cells: CHO-K1
T1 sequence (P28335 33-458): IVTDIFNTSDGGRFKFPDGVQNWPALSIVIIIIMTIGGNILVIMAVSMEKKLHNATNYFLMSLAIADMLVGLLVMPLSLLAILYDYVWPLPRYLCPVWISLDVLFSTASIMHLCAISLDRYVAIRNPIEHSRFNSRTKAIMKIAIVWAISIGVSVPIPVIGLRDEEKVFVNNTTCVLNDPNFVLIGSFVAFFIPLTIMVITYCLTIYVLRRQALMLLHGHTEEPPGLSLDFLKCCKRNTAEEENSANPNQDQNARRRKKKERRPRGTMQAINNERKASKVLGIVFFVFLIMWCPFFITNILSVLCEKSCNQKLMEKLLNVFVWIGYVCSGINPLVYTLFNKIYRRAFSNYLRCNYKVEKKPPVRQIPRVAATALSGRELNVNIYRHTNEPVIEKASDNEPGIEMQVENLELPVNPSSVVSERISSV
Procedure: (§1) The binding affinity of ligands for human 5-HT2A and 5-HT2C receptors was determined using the following assay.
Membrane preparations from CHO-K1 cells expressing the cloned human 5-HT2C receptor were obtained (Euroscreen). The membranes were thawed rapidly and diluted in assay buffer containing Tris-HCl (50 mM, pH 7.7), ascorbic acid (0.1%) and pargyline (10 μM). The membranes were resuspended by homogenisation, prior to adding 6 μg of membranes to assay wells containing [^3H]mesulergine (1 nM), assay buffer (50 mM Tris at pH 7.7 and 0.1% ascorbic acid) containing pargyline (10 μM), and test compounds (1×10^−10 to 1×10^−4M). Non specific binding was determined in the presence of 100 μM mianserin. After 30 minutes incubation at 37° C., the assay mixture was filtered through a combination of GF-C and GF-B filters, pre-soaked in 1% bovine serum albumin, using a Brandel cell harvester, and were washed three times using ice cold Tris-HCl buffer (50 mM). Radioactivity retained on the filters was determined by liquid scintillation counting. For each test compound, the concentration that inhibited binding of [^3H]mesulergine by 50% was determined using curve fitting software (Prism). Kd values (concentration of mesulergine required to occupy 50% of the receptor binding sites at equilibrium) determined from saturation binding studies were then used to calculate inhibition dissociation constants (Ki) using the following equation: […]

[2] = molecular target: T2, cloned human 5-HT2A receptor (Homo sapiens, UniProt P28223); assay: Human 5-HT2A receptor binding assay; conditions: [3H]ketanserin (1 nM) displacement, CHO-K1 cell membranes; read-out: 5-HT2A pKi (converted)
T2 construct: purchased Euroscreen; host or cells: CHO-K1
T2 sequence (P28223 whole entry): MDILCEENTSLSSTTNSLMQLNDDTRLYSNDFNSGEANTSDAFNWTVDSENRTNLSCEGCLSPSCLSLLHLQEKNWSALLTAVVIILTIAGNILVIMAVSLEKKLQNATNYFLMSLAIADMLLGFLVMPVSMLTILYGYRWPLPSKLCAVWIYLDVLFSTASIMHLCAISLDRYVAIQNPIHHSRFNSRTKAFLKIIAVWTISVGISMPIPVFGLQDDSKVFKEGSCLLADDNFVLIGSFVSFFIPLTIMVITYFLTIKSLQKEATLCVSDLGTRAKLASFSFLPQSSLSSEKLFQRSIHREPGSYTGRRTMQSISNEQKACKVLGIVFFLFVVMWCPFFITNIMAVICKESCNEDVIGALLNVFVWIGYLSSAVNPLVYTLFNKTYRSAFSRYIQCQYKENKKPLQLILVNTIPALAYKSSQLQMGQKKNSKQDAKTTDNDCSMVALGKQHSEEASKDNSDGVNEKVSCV
Procedure: as §1
Membrane preparations from CHO-K1 cells expressing the cloned human 5-HT2A receptor were obtained (Euroscreen). The membranes were thawed rapidly and diluted in assay buffer containing Tris-HCl (50 mM, pH 7.7). The membranes were resuspended by homogenisation, prior to adding 15 μg of membranes to assay wells containing [3H]ketanserin (1 nM), assay buffer (50 mM Tris at pH 7.4) containing pargyline (10 μM), and test compounds (1×10^−10 to 1×10^−4M). Non specific binding was determined in the presence of 100 μM mianserin. After 15 minutes incubation at 37° C., the assay mixture was filtered through a combination of GF-C and GF-B filters, pre-soaked in 0.05% Brij, using a Brandel cell harvester, and were washed three times using ice cold Tris-HCl buffer (50 mM). Radioactivity retained on the filters was determined by liquid scintillation counting. For each test compound, the concentration that inhibited binding of [^3H]ketanserin by 50% was determined using curve fitting software (Prism). Kd values (concentration of ketanserin required to occupy 50% of the receptor binding sites at equilibrium) determined from saturation binding studies were then used to calculate inhibition dissociation constants (Ki) using the following equation: […]

[3] = molecular target: T3, human cloned 5-HT2B receptors (Homo sapiens, UniProt P41595); assay: Human cloned 5-HT2B receptor binding assay; conditions: [3H]LSD (1 nM) displacement, membranes of CHO-K1 cells expressing cloned 5-HT2B receptor; read-out: 5-HT2B pKi (converted)
T3 construct: expressed in transfected cells; host or cells: CHO-K1
T3 sequence (P41595 whole entry): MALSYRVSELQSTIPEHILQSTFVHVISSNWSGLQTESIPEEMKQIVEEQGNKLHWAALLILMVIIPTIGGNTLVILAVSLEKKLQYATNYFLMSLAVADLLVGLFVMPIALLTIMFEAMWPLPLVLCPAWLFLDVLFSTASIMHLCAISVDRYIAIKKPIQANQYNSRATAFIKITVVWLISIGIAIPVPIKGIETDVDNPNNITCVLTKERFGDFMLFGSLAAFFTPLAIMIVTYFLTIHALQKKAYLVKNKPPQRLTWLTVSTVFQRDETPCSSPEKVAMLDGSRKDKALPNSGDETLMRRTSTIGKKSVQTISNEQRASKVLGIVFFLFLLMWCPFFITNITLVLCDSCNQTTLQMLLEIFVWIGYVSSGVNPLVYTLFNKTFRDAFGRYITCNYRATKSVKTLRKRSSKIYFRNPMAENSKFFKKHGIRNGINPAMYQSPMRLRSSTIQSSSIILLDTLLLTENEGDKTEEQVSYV
Procedure: The binding affinity of the compounds for human cloned 5-HT2B receptors was determined using the following assay.
CHO-K1 cells expressing cloned 5-HT2B receptor were maintained in Ultra-CHO medium containing 400 μg/ml of G418, 100 U/ml penicillin, 100 μg/ml streptomycin, 2.5 μg/ml fungizone and 1-foetal bovine serum, in 95/5% O2/CO2 at 37° C. The cells were harvested using 0.25% trypsin and were centrifuged at 800 rpm for 8 minutes. The cells were homogenised in 50 mM HEPES buffer containing 1 mM disodium EDTA and 1 mM PMSF at pH 7.4, using a Dounce homogeniser (20 strokes). The homogenate was centrifuged at 2280 rpm (1000 g) and 4° C. for 10 minutes, after which the supernatant was removed by decanting. The pellet was re-homogenised as above, and the resulting supernatant removed and combined with that already obtained. The supernatant solution was then centrifuged at 18300 rpm (40000 g) for 10 minutes at 4° C. using a Sorvall centrifuge. The supernatant was removed, and the pellet was re-suspended in 50 mM buffer at pH 7.4 using a Ultra-turrax T25 Polytron, before centrifugation again at 40000 g as above. This wash procedure was repeated, after which the membrane preparation was stored at a concentration of 1 mg/ml at −80° C. until use.
The membranes were thawed rapidly and diluted in assay buffer containing Tris-HCl (50 mM, pH 7.4), ascorbic acid (0.1°) and calcium chloride (4 mM). The membranes were homogenised to resuspend them, prior to adding 10 or 15 μg of membranes to assay wells containing [^3H]LSD (1 nM), assay buffer (50 mM Tris, 4 mM calcium chloride and 0.1° ascorbic acid) containing pargyline (10 μM), and the test compounds (1×10^−10 to 1×10^−4M). Non specific binding was determined in the presence of 100 μM 5-HT. After 30 minutes incubation at 37° C., the assay mixture was filtered through a combination of GF-C and GF-B filters, pre-soaked in 1% polyethyleneimine, using a Brandel cell harvester, and were washed three times using 50 mM Tris-HCl. Radioactivity retained on the filters was determined by liquid scintillation counting. For each test compound, the concentration that inhibited binding of [^3H]LSD by 50% was determined using curve fitting software (Prism). Kd values (concentration of LSD required to occupy 50% of the receptor binding sites at equilibrium) determined from saturation binding studies were then used to calculate inhibition dissociation constants (Ki) using the following equation: […]
This approach follows that set out in Kenakin, T. P. Pharmacologic analysis of drug-receptor interaction. Raven Press, New York, 2nd Edition.

Row | Compound | Ki [1] | Ki [2] | Ki [3]
1 | COc1ccc(Nc2cc(C)nc(N)n2)cc1Cl [Compound 2AC, N^4-(3-chloro-4-methoxy-phenyl)-6-methyl-pyrimidine-2,4-diamine, hydrochloride] | > 1000 nM | > 1000 nM | < 1000 nM
2 | Cc1cc(Nc2ccc(F)cc2)nc(N)n1 [Compound 2I, N^4-(4-fluoro-phenyl)-6-methyl-pyrimidine-2,4-diamine hydrochloride] | > 1000 nM | > 10000 nM | < 1000 nM
3 | CC(=O)Nc1nc(-c2cccc3sccc23)c[nH]1 [Compound 103L, N-(4-Benzo[b]thiophen-4-yl-1H-imidazol-2-yl)-acetamide] | > 10000 nM | > 10000 nM | < 100 nM
4 | Cc1cc(Nc2ccc(Cl)c(Cl)c2)nc(N)n1 [Compound 2N, N^4-(3,4-dichloro-phenyl)-6-methyl-pyrimidine-2,4-diamine hydrochloride] | > 1000 nM | > 1000 nM | < 1000 nM
5 | Nc1ncc(-c2cccc(-c3ccc(F)cc3)c2)o1 [Compound 209J, 5-(4′-Fluoro-biphenyl-3-yl)-oxazol-2-ylamine, trifluoroacetic acid] | > 1000 nM | > 1000 nM | < 1000 nM
6 | Cc1cc(Nc2ccccc2)nc(N)n1 [Compound 2A, N^4-phenyl-6-methyl-pyrimidine-2,4-diamine hydrochloric acid] | > 1000 nM | > 10000 nM | < 1000 nM
7 | Cc1cc(Nc2cccc(-c3ccccc3)c2)nc(N)n1 [Compound 10A, N^4-biphenyl-3-yl-6-methyl-pyrimidine-2,4-diamine trifluoroacetic acid] | > 316 nM | > 100 nM | < 100 nM
8 | COc1ccccc1-c1cccc(-c2nc(N)oc2C)c1 [Compound 218C, 4-(2′-methoxy-biphenyl-3-yl)-5-methyl-oxazol-2-ylamine, trifluoroacetic acid] | > 1000 nM | > 1000 nM | < 316 nM
9 | CC(=O)Nc1cccc(-c2cccc(Nc3cc(C)nc(N)n3)c2)c1 [Compound 10I, N-[3′-(2-amino-6-methyl-pyrimidin-4-ylamino)-biphenyl-3-yl]-acetamide hydrochloride] | > 10000 nM | > 10000 nM | < 1000 nM
10 | Nc1ncc(-c2cccc(-c3ccccc3Cl)c2)o1 [Compound 209E, 5-(2′-Chloro-biphenyl-3-yl)-oxazol-2-ylamine] | > 10000 nM | > 1000 nM | < 316 nM
11 | CC(=O)Nc1nc(-c2cccc3c(Br)cccc23)c[nH]1 [Compound 103H, N-[4-(5-Bromo-naphthalen-1-yl)-1H-imidazol-2-yl]-acetamide] | > 1000 nM | > 1000 nM | < 100 nM
12 | Nc1nc(-c2ccc(-c3ccccc3)cc2)c[nH]1 [Compound 104P, 4-Biphenyl-4-yl-1H-imidazol-2-ylamine] | > 316 nM | > 100 nM | < 316 nM
13 | Nc1nc(-c2ccc(F)c3ccccc23)c[nH]1 [Compound 104F, 4-(4-Fluoro-naphthalen-1-yl)-1H-imidazol-2-ylamine] | > 1000 nM | > 1000 nM | < 100 nM
14 | Cc1cc(Nc2ccc(Oc3ccccc3)cc2)nc(N)n1 [Compound 2AE, 6-methyl-N^4-(4-phenoxy-phenyl)-pyrimidine-2,4-diamine hydrochloride] | > 316 nM | > 10000 nM | < 100 nM
15 | Nc1nc(-c2cccc3c(Br)cccc23)c[nH]1 [Compound 104H, 4-(5-Bromo-naphthalen-1-yl)-1H-imidazol-2-ylamine] | > 100 nM | > 316 nM | < 100 nM
16 | Cc1cccc(-c2cccc(-c3cnc(N)o3)c2)c1 [Compound 209B, 5-(3′-Methyl-biphenyl-3-yl)-oxazol-2-ylamine] | > 10000 nM | > 10000 nM | < 316 nM
17 | Cn1nc(Nc2ccc(-c3ccccc3)cc2)nc1N [Compound 411A, N^3-biphenyl-4-yl-1-methyl-1H-[1,2,4]triazole-3,5-diamine trifluoroacetic acid] | > 1000 nM | > 1000 nM | < 1000 nM
18 | Cc1cccc(-c2ccc(Nc3nc(N)n(C)n3)cc2)c1 [Compound 411C, 1-methyl-N^3-(3′-methyl-biphenyl-4-yl)-1H-[1,2,4]triazole-3,5-diamine trifluoroacetic acid] | > 1000 nM | > 1000 nM | < 1000 nM
19 | Cc1cc(Nc2ccc(-c3ccccc3)cc2)nc(N)n1 [Compound 11A, N^4-biphenyl-4-yl-6-methyl-pyrimidine-2,4-diamine trifluoroacetic acid] | > 100 nM | > 1000 nM | < 10 nM
20 | Cc1cc(Nc2cccc(Oc3ccccc3)c2)nc(N)n1 [Compound 2AD, 6-methyl-N^4-(3-phenoxy-phenyl)-pyrimidine-2,4-diamine hydrochloride] | > 1000 nM | > 316 nM | < 1000 nM
21 | Cc1cccc(-c2cc(Nc3cc(C)nc(N)n3)ccc2C)c1 [Compound 12, N^4-(6,3′-dimethyl-biphenyl-3-yl)-6-methyl-pyrimidine-2,4-diamine] | > 1000 nM | > 1000 nM | < 100 nM
22 | Cc1cc(Nc2ccc(N3CCOCC3)cc2)nc(N)n1 [Compound 2K, 6-methyl-N^4-(4-morpholin-4-yl-phenyl)-pyrimidine-2,4-diamine hydrochloride] | > 10000 nM | > 10000 nM | < 1000 nM
23 | COc1ccccc1-c1ccc(Nc2nc(N)n(C)n2)cc1 [Compound 411B, N^3-(2′-methoxy-biphenyl-4-yl)-7-methyl-1H-[1,2,4]triazole-3,5-diamine trifluoroacetic acid] | > 1000 nM | > 1000 nM | < 1000 nM
